# Measurements published in US5096884A, “Glidobactin PF-1 peptide antibiotics” (Bristol-Myers Squibb Company, priority 1990, dated 1992).
# Read-outs that look alike come from different tables or passages of the source.
# What was measured:
# [1] = system: protein synthesis in L1210 murine leukemia cells; assay: Inhibition of macromolecule synthesis, 3H-leucine incorporation; type: cell-based; settings: for effect on protein synthesis (in words) / IC50, Protein synthesis: L1210 cells; for IC50, Protein synthesis: 3H-leucine, 4 hrs
# Description: (§1) Inhibitory effects of glidobactins A and PF-1 on macromolecule biosynthesis (DNA, RNA, and protein) were determined in cultured L1210 murine leukemia cells. The cells (5×10^5 cells/mL) were incubated with test compounds at 37° C. for 15 min and further incubated for 4 hrs after the addition of labeled precursor, ^3 H-thymidine, ^14 C-uridine, or ^3 H-leucine into the cultured mixture. After washing with chilled 5% trichloroacetic acid solution, the radioactivity incorporated into the acid-insoluble fraction of the cells was determined by a liquid scintillation counter.
# [2] = system: RNA synthesis in L1210 murine leukemia cells; assay: Inhibition of macromolecule synthesis, 14C-uridine incorporation; type: cell-based; settings: for IC50, RNA synthesis: L1210 cells, 14C-uridine, 4 hrs; for inhibitory effect on RNA synthesis (in words): at 100 μg/mL, the highest concentration tested
# Description: as §1
# [3] = system: DNA synthesis in L1210 murine leukemia cells; assay: Inhibition of macromolecule synthesis, 3H-thymidine incorporation; type: cell-based; settings: for IC50, DNA synthesis: L1210 cells, 3H-thymidine, 4 hrs; for inhibitory effect on DNA synthesis (in words): at 100 μg/mL, the highest concentration tested
# Description: as §1
# B16 Melanoma (ip) = settings: for T/C % of MST: ip, QD1→9, ≥125% significant; for antitumor activity against ip-B16 melanoma (in words): at the doses tested
# Description: (§2) In vivo antitumor activity of glidobactin PF-1 was determined in experimental mouse tumor systems. Female CDF1 and male BDF1 mice were intraperitoneally inoculated with 0.4 mL of diluted ascitic fluid containing 10^6 lymphocytic leukemia P388 cells and 0.5 mL of 10% melanotic melanoma B16 brei, respectively. Test compounds were intraperitoneally administered daily for 9 days starting from 1 day after the tumor implantation.
# P388 Leukemia (ip) = settings: for T/C % of MST: ip, QD1→9, ≥125% significant; for maximum T/C value: P388 leukemia, ip daily for 9 days
# Description: as §2
# [4] = system: P388 (murine lymphocytic leukemia) cells; type: cell-based; settings: for IC50: P388 cells, 72 hrs
# Description: (§3) Glidobactin PF-1 and glidobactin A were tested for in vitro cytotoxicity against murine tumor cell lines and for in vivo antitumor activity in mice. Mitomycin C was used as a reference compound in both in vitro and in vivo experiments. B16-F10 (murine melanoma) cells were grown to the logarithmic phase in an enriched Eagle minimum essential medium supplemented with fetal calf serum (FCS, 10%) and kanamycin (60 μg/ml). P388 (murine lymphocytic leukemia) cells were in RPMI1640 medium supplemented with FCS (10%), penicillin (100 U/ml), and streptomycin (100 μg/ml). B16-F10 and P388 cells were harvested and implanted into wells of a 96-well (for B16-F10 cells) and a 24-well (for P388 cells) tissue culture plate with test materials at the inoculum sizes of 3×10^4 and 2×10^4 cells/mL, respectively. They were incubated at 37° C. in a humidified atmosphere of 5% CO2 and 95% air for 72 hrs. The cytotoxicity against B16-F10 cells was colorimetrically determined at 540 nm after staining viable cells with 0.006% neutral red solution. As for P388 cells, the number of viable cells was determined by a Coulter counter.
# [5] = system: B16-F10 (murine melanoma) cells; type: cell-based; settings: for IC50: B16-F10 cells, 72 hrs
# Description: as §3
# [6] = system: Fusarium moniliforme A2284; assay: MIC by serial agar dilution method; type: cell-based; settings: Sabouraud dextrose agar; inoculum 10^5-10^7
# [7] = system: Bacillus subtilis PCI 219; assay: MIC by serial agar dilution method; type: cell-based; settings: Nutrient agar; inoculum 10^4 CFU/mL
# [8] = system: Pseudomonas aeruginosa A9930; assay: MIC by serial agar dilution method; type: cell-based; settings: Nutrient agar; inoculum 10^4 CFU/mL
# [9] = system: Klebsiella pneumoniae D 11; assay: MIC by serial agar dilution method; type: cell-based; settings: Nutrient agar; inoculum 10^4 CFU/mL
# Escherichia coli NIHJ = assay: MIC by serial agar dilution method; type: cell-based; settings: Nutrient agar; inoculum 10^4 CFU/mL
# [10] = system: Candida albicans IAM 4888; assay: MIC by serial agar dilution method; type: cell-based; settings: Sabouraud dextrose agar; inoculum 10^5-10^7
# Piricularia oryzae D9 = settings: Sabouraud dextrose agar; inoculum 10^5-10^7
# Candida albicans A9540 = assay: MIC by serial agar dilution method; type: cell-based; settings: Sabouraud dextrose agar; inoculum 10^5-10^7
# Mucor spinosus IFO 5317 = assay: MIC by serial agar dilution method; type: cell-based; settings: Sabouraud dextrose agar; inoculum 10^5-10^7
# [11] = system: Sporothrix schenckii IFO 8158; assay: MIC by serial agar dilution method; type: cell-based; settings: Sabouraud dextrose agar; inoculum 10^5-10^7
# [12] = system: Aspergillus fumigatus IAM 2530; assay: MIC by serial agar dilution method; type: cell-based; settings: Sabouraud dextrose agar; inoculum 10^5-10^7
# [13] = system: Blastomyces dermatitidis IFO 8144; assay: MIC by serial agar dilution method; type: cell-based; settings: Sabouraud dextrose agar; inoculum 10^5-10^7
# [14] = system: Staphyloccoccus aureus 209P; assay: MIC by serial agar dilution method; type: cell-based; settings: Nutrient agar; inoculum 10^4 CFU/mL
# [15] = system: Cryptococcus neoformans D49; assay: MIC by serial agar dilution method; type: cell-based; settings: Sabouraud dextrose agar; inoculum 10^5-10^7
# [16] = system: Trichophyton mentagrophytes D155; assay: MIC by serial agar dilution method; type: cell-based; settings: Sabouraud dextrose agar; inoculum 10^5-10^7
# [17] = system: Streptoccoccus faecalis A9612; assay: MIC by serial agar dilution method; type: cell-based; settings: Nutrient agar; inoculum 10^4 CFU/mL
# bacteria tested = assay: In vitro antibacterial activity; type: cell-based; settings: at 100 μg/ml
# Description: (§4) The minimum inhibitory concentrations (MIC's) of glidobactin PF-1 were determined for various microorganisms by a serial agar dilution method. Nutrient agar (Eiken) was used for bacteria and Sabouraud dextrose agar (Difco) for fungi. The inoculum size was adjusted to 10^4 CFU/mL for bacteria and 10^5 -10^7 for fungi. Invitro antibacterial and antifungal activities of glidobactin PF-1 are shown in Table 3 together with the activities found with glidobactin C.
# fungi = assay: In vitro antifungal activity; type: cell-based
# Description: as §4
compound,measurement,setting,value
"CCCCCCC/C=C/C=C/C(=O)N[C@H](C(=O)N[C@H]1C[C@@H](O)CCNC(=O)/C=C/[C@H](C)NC1=O)[C@@H](C)O [Glidobactin A, glidobactin A]",effect on protein synthesis (in words),[1],inhibited protein synthesis
same,"IC50, Protein synthesis",[1],0.03 µg/mL
same,"IC50, RNA synthesis",[2],> 100 µg/mL
same,inhibitory effect on RNA synthesis (in words),[2],no significant inhibitory effect
same,"IC50, DNA synthesis",[3],> 100 µg/mL
same,inhibitory effect on DNA synthesis (in words),[3],no significant inhibitory effect
same,T/C % of MST,"B16 Melanoma (ip); B16, 0.13 mg/kg/day",97%
same,T/C % of MST,"B16 Melanoma (ip); B16, 0.25 mg/kg/day",100%
same,T/C % of MST,"B16 Melanoma (ip); B16, 0.5 mg/kg/day",113%
same,T/C % of MST,"B16 Melanoma (ip); B16, 1 mg/kg/day",116%
same,antitumor activity against ip-B16 melanoma (in words),B16 Melanoma (ip),no significant antitumor activity
same,T/C % of MST,"P388 Leukemia (ip); P388, 0.031 mg/kg/day",100%
same,T/C % of MST,"P388 Leukemia (ip); P388, 0.063 mg/kg/day",110%
same,T/C % of MST,"P388 Leukemia (ip); P388, 0.13 mg/kg/day",130%
same,T/C % of MST,"P388 Leukemia (ip); P388, 0.25 mg/kg/day",150%
same,T/C % of MST,"P388 Leukemia (ip); P388, 0.5 mg/kg/day",155%
same,T/C % of MST,"P388 Leukemia (ip); P388, 1 mg/kg/day",190%
same,maximum T/C value,P388 Leukemia (ip),190%
same,cytotoxicity (in words),[4],potent cytotoxicity
same,IC50,[4],0.008 µg/mL
same,cytotoxicity (in words),[5],potent cytotoxicity
same,IC50,[5],0.04 µg/mL
"CCCCCCCCC/C=C/C=C/C(=O)N[C@H](C(=O)N[C@H]1C[C@@H](O)CCNC(=O)/C=C\[C@H](C)NC1=O)[C@@H](C)O [Glidobactin C, glidobactin C]",MIC,[6],> 50 µg/mL
same,MIC,[7],> 100 µg/mL
same,MIC,[8],> 100 µg/mL
same,MIC,[9],> 100 µg/mL
same,MIC,Escherichia coli NIHJ,> 100 µg/mL
same,MIC,[10],0.4 µg/mL
same,MIC,Piricularia oryzae D9,6.3 µg/mL
same,MIC,Candida albicans A9540,0.2 µg/mL
same,MIC,Mucor spinosus IFO 5317,0.8 µg/mL
same,MIC,[11],> 50 µg/mL
same,MIC,[12],1.6 µg/mL
same,MIC,[13],3.1 µg/mL
same,MIC,[14],> 100 µg/mL
same,MIC,[15],0.8 µg/mL
same,MIC,[16],0.8 µg/mL
same,MIC,[17],> 100 µg/mL
"CCC=CCC=CCCC=CC=CC(=O)NC(C(=O)NC1CC(O)CCNC(=O)C=CC(C)NC1=O)C(C)O (stereo not shown) [Glidobactin PF-1, glidobactin PF-1]",MIC,[6],> 50 µg/mL
same,inhibition of the bacteria tested (in words),bacteria tested,did not inhibit
same,effect on protein synthesis (in words),[1],inhibited protein synthesis
same,"IC50, Protein synthesis",[1],0.07 µg/mL
same,inhibitory activity on protein synthesis relative to glidobactin A,[1]; relative to glidobactin A,approximately half
same,MIC,[7],> 100 µg/mL
same,MIC,[8],> 100 µg/mL
same,MIC,[9],> 100 µg/mL
same,MIC,Escherichia coli NIHJ,> 100 µg/mL
same,MIC,[10],12.5 µg/mL
same,MIC,Piricularia oryzae D9,12.5 µg/mL
same,MIC,Candida albicans A9540,6.3 µg/mL
same,solubility (in words),"in methanol, ethanol, n-butanol, and dimethyl sulfoxide",soluble
same,solubility (in words),in n-hexane and water,insoluble
same,MIC,Mucor spinosus IFO 5317,3.1 µg/mL
same,"IC50, RNA synthesis",[2],> 100 µg/mL
same,inhibitory effect on RNA synthesis (in words),[2],no significant inhibitory effect
same,MIC,[11],> 50 µg/mL
same,"IC50, DNA synthesis",[3],> 100 µg/mL
same,inhibitory effect on DNA synthesis (in words),[3],no significant inhibitory effect
same,MIC,[12],12.5 µg/mL
same,T/C % of MST,"B16 Melanoma (ip); B16, 0.13 mg/kg/day",103%
same,T/C % of MST,"B16 Melanoma (ip); B16, 0.25 mg/kg/day",118%
same,T/C % of MST,"B16 Melanoma (ip); B16, 0.5 mg/kg/day",113%
same,T/C % of MST,"B16 Melanoma (ip); B16, 1 mg/kg/day",111%
same,antitumor activity against ip-B16 melanoma (in words),B16 Melanoma (ip),no significant antitumor activity
same,T/C % of MST,"P388 Leukemia (ip); P388, 0.016 mg/kg/day",118%
same,T/C % of MST,"P388 Leukemia (ip); P388, 0.031 mg/kg/day",129%
same,T/C % of MST,"P388 Leukemia (ip); P388, 0.063 mg/kg/day",133%
same,T/C % of MST,"P388 Leukemia (ip); P388, 0.13 mg/kg/day",160%
same,T/C % of MST,"P388 Leukemia (ip); P388, 0.25 mg/kg/day",170%
same,T/C % of MST,"P388 Leukemia (ip); P388, 0.5 mg/kg/day",174%
same,T/C % of MST,"P388 Leukemia (ip); P388, 1 mg/kg/day",130%
same,maximum T/C value,P388 Leukemia (ip),174%
same,potency against P388 relative to glidobactin A,"P388 Leukemia (ip); in vivo P388, relative to glidobactin A",approximately 4 times
same,MIC,[13],12.5 µg/mL
same,MIC,[14],> 100 µg/mL
same,MIC,[15],25 µg/mL
same,activity against fungi (in words),fungi,moderate activity
same,intrinsic antifungal activity compared with glidobactin C (in words),fungi; relative to glidobactin C,considerably weaker
same,MIC,[16],12.5 µg/mL
same,cytotoxicity (in words),[4],potent cytotoxicity
same,IC50,[4],0.010 µg/mL
same,cytotoxicity (in words),[5],potent cytotoxicity
same,IC50,[5],0.07 µg/mL
same,MIC,[17],> 100 µg/mL
CO[C@@]12[C@H](COC(N)=O)C3=C(C(=O)C(C)=C(N)C3=O)N1C[C@@H]1N[C@@H]12 [Mitomycin C],"IC50, Protein synthesis",[1],> 100 µg/mL
same,"IC50, RNA synthesis",[2],> 100 µg/mL
same,"IC50, DNA synthesis",[3],1.7 µg/mL
same,T/C % of MST,"P388 Leukemia (ip); P388, 0.031 mg/kg/day",115%
same,T/C % of MST,"P388 Leukemia (ip); P388, 0.063 mg/kg/day",140%
same,T/C % of MST,"P388 Leukemia (ip); P388, 0.13 mg/kg/day",145%
same,T/C % of MST,"P388 Leukemia (ip); P388, 0.25 mg/kg/day",170%
same,T/C % of MST,"P388 Leukemia (ip); P388, 0.5 mg/kg/day",190%
same,T/C % of MST,"P388 Leukemia (ip); P388, 1 mg/kg/day",225%
same,IC50,[5],0.50 µg/mL
